US11647752B2 (priority 2020, dated 2023)
“And” between values parts separate entries of the source, which are not always exact repeats. Identical values can stand only once. Like-named read-outs stand apart in the source and are kept apart here.

Key:
[1] = system: Ralstonia solanacearum (tobacco bacterial wilt pathogen HF-1-1); format: cell-based; conditions: 50 μL per hole, 37° C., 12 h
[2] = system: Ralstonia solanacearum in tobacco roots; format: in vivo; conditions: for Amount of Ralstonia solanacearum in the roots: 12 h of inoculation
[3] = system: Ralstonia solanacearum (pathogen HF-1-1); format: cell-based; conditions: NaHS 0, 200, 400, 600, 800 mg/L in liquid culture, 12 h, 37° C.

SMILES	Diameter of inhibition zone ([1]; NaHS 200 mg/L)	Diameter of inhibition zone ([1]; NaHS 400 mg/L)	Diameter of inhibition zone ([1]; NaHS 600 mg/L)	Diameter of inhibition zone ([1]; NaHS 800 mg/L)	Amount of Ralstonia solanacearum in the roots ([2]; N200 (NaHS 200 mg/L))	Content of Ralstonia solanacearum in the tobacco roots compared with CK and N- groups ([2]; N200-N800 (NaHS 200-800 mg/L), 24 h and 36 h)	Amount of Ralstonia solanacearum in the roots ([2]; N400 (NaHS 400 mg/L))	Amount of Ralstonia solanacearum in the roots ([2]; N600 (NaHS 600 mg/L))	Amount of Ralstonia solanacearum in the roots ([2]; N800 (NaHS 800 mg/L))	Decrease of number of Ralstonia solanacearum colonized on tobacco roots compared with control group ([2]; NaHS 800 mg/L, 36 hours) [%]	Biomass of the pathogen HF-1-1 (OD600) [3]	Amount of Ralstonia solanacearum in the roots ([2]; N- (10 mL 0.8 mmol hydroxylamine))
[Na+].[SH-] [NaHS]	11.20±0.72 mm and 11.20 mm	14.61±0.93 mm and 14.61 mm	19.43±0.41 mm and 19.43 mm	21.21±1.22 mm and 21.21 mm	1.36 ×10^4 CFU/g	relatively lower	1.39 ×10^4 CFU/g	1.40 ×10^4 CFU/g	1.37 ×10^4 CFU/g	98.32	decreased with the increase of its concentration	–
NO [H2S inhibitor, hydroxylamine, reference compound]	–	–	–	–	–	–	–	–	–	–	–	1.38 ×10^4 CFU/g
